According to publication PMC9958325 (Nature Communications, 2023):
Several values for one entry are separate records, joined by “and”; a condition that tells them apart may be missing. Identical values can stand only once. Like-named read-outs stand apart in the source and are kept apart here.

How the values were obtained:
SARS-CoV-2 M^pro/3CL^pro = SARS-CoV-2 M^pro/3CL^pro (Severe acute respiratory syndrome coronavirus 2, UniProt P0DTD1); format: biochemical; design: IC95, individual assays / IC95, Average: unit: µM
human cathepsin L = biological target: T1, human cathepsin L (Homo sapiens, UniProt P07711); test: Human cathepsin L inhibitor screening assay; format: biochemical; conditions: for % inhibition against human Cathepsin: triplicate; for IC50: 30 minute incubation, mean ± 1 S.D., n=3
T1 construct: purchased abcam ab197012
T1 sequence (P07711 114-333): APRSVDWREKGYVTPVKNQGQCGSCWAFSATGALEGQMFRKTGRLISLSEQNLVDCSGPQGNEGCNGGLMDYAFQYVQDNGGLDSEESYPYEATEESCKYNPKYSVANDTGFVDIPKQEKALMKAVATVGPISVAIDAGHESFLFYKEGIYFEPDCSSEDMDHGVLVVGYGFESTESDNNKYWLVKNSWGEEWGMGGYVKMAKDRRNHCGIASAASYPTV

[1] = tested on: SARS-CoV-2NC928-2N^Omicron_BA.1; design: species or system hACE2 knock-in mice; conditions: mouse, in vivo; for Virus titer in lung: ip
SARS-CoV-2UW-5250^Delta = tested on: SARS-CoV-2UW-5250^Delta; design: species or system hACE2 knock-in mice; conditions: mouse, in vivo, ip, 100 mg/kg
SARS-CoV-2 M^pro = SARS-CoV-2 M^pro (Severe acute respiratory syndrome coronavirus 2, UniProt P0DTD1); conditions: PDB 8DOX (TKB245), 8DPR (TKB248)
A549-ACE2-TMPRSS2 cells = conditions: read-out: CC50, A549-ACE2-TMPRSS2; noninfected cells
[2] = mouse, in vivo
[3] = Pharmacokinetic study in ICR mice
VeroE6 cells [4] = test: Cytotoxicity (WST-8) in noninfected VeroE6 cells
HeLa-ACE2-TMPRSS2 cells = test: Cytotoxicity (WST-8) in noninfected HeLa-ACE2-TMPRSS2 cells; conditions: read-out: CC50, HeLa-ACE2-TMPRSS2
[5] = tested on: SARS-CoV-2NCD1288^Omicron_BA.2; design: species or system hACE2 knock-in mice; conditions: mouse, in vivo, ip, 120 mg/kg
[6] = biological target: authentic SARS-CoV-2 M^pro (Severe acute respiratory syndrome coronavirus 2, UniProt P0DTD1)
Glycine-added M^pro = Glycine-added M^pro (Severe acute respiratory syndrome coronavirus 2, UniProt P0DTD1)
VeroE6 cells [7] = conditions: African green monkey, 6 h
in vivo = conditions: male, PXB (human liver-chimeric), mouse, po, 10 mg/kg
in vitro [8] = conditions: African green monkey, VeroE6 cells
in vitro [9] = conditions: human, HeLa-ACE2-TMPRSS2 cells
[10] = source data, M^pro enzyme assay
[11] = read-out: CC50, VeroE6 + 2 µM CP100356, CP100356 2 µM

With `CC(C)(C)[C@H](NC(=O)C(F)(F)F)C(=O)N1C[C@H]2[C@@H]([C@H]1C(=O)N[C@@H](C[C@@H]1CCNC1=O)C(=O)c1nc3c(F)cccc3s1)C2(C)C` [TKB245] the “SARS-CoV2 M^pro enzyme assay IC95” value (SARS-CoV-2 M^pro/3CL^pro; FRET, mean ± 1 S.D.) was 0.14 ± 0.07 µM, the “IC95, Average” value (SARS-CoV-2 M^pro/3CL^pro; [10]) was 0.1363 and the “IC95, individual assays” value (SARS-CoV-2 M^pro/3CL^pro; source data, M^pro enzyme assay, listed as TKB0245) was 0.096 and 0.213 and 0.100. The “Effect on human cathepsin L (in words)” value (human cathepsin L) was “neither of human cysteine enzymes, cathepsin L and calpain, were significantly affected”, the “% inhibition against human Cathepsin” value (human cathepsin L; 0.00106 µM) was 0% and the “% inhibition against human Cathepsin” value (human cathepsin L; 0.0053 µM) was 0%. For the same molecule, the “% inhibition against human Cathepsin” value (human cathepsin L; 0.0266 µM) was 0% and 0.8979%, the “% inhibition against human Cathepsin” value (human cathepsin L; 0.6 µM) was 0% and 2.5149% and the “% inhibition against human Cathepsin” value (human cathepsin L; 3.3 µM) was 9.142% and 0% and 2.217%. For the same molecule, the “% inhibition against human Cathepsin” value (human cathepsin L; 16.6 µM) was 21.1326% and 17.6611% and 11.0896%, the IC50 (human cathepsin L) was > 16 µM and the “Virus titer in lung” value ([1]; 100 mg/kg) was 2.95 Log10 PFU/gr and 3.55 Log10 PFU/gr. The “Virus titer in lung” value (SARS-CoV-2UW-5250^Delta) was 6.24 Log10 PFU/gr and 6.89 Log10 PFU/gr, the “Binding mode in co-crystal structure” value (SARS-CoV-2 M^pro) was “covalent bond formation between Cys145 and 4-fluorobenzothioazoly ketone” and the CC50 (A549-ACE2-TMPRSS2 cells) was > 100 µM. The CC50 (HepG2 cells) was > 200 µM, the “Body weights and survival rates” value [2] was “no significant changes were recorded” and the Plasma concentration ([3]; ICR mice, i.p. 10 mg/kg, 2:00:00, individual mice, 10 mg/kg) was 528.9 ng/mL. For the same molecule, the Plasma concentration ([3]; ICR, i.p., 120 min, individual animals (2 per time point), LC/MS/MS) was 528.86 ng/mL, the CC50 (VeroE6 cells [4]; read-out: CC50, VeroE6) was > 100 µM and the CC50 (VeroE6 cells [4]; [11]) was > 100 µM. For the same molecule, the CC50 (HeLa-ACE2-TMPRSS2 cells) was > 100 µM.
With `CC(C)(C)[C@H](NC(=O)C(F)(F)F)C(=O)N1C[C@H]2[C@@H]([C@H]1C(=S)N[C@@H](C[C@@H]1CCNC1=O)C(=O)c1nc3c(F)cccc3s1)C2(C)C` [TKB248] the “SARS-CoV2 M^pro enzyme assay IC95” value (SARS-CoV-2 M^pro/3CL^pro; FRET, mean ± 1 S.D.) was 6.00 ± 5.29 µM, the IC50 (SARS-CoV-2 M^pro/3CL^pro; FRET, mean ± 1 S.D., read-out: SARS-CoV2 M^pro enzyme assay IC50) was 0.074 ± 0.034 µM and the “IC95, Average” value (SARS-CoV-2 M^pro/3CL^pro; [10]) was 6.000. The “IC95, individual assays” value (SARS-CoV-2 M^pro/3CL^pro; source data, M^pro enzyme assay, listed as TKB0248) was 12.00 and 2.000 and 4.000, the IC50 (SARS-CoV-2 M^pro/3CL^pro; source data, M^pro enzyme assay, listed as TKB0248, read-out: IC50, individual assays) was 0.0472 µM and 0.0622 µM and 0.113 µM and the IC50 (SARS-CoV-2 M^pro/3CL^pro; source data, M^pro enzyme assay, read-out: IC50, Average) was 0.0741 µM. For the same molecule, the “Effect on human cathepsin L (in words)” value (human cathepsin L) was “neither of human cysteine enzymes, cathepsin L and calpain, were significantly affected”, the “% inhibition against human Cathepsin” value (human cathepsin L; 0.00106 µM) was 0% and the “% inhibition against human Cathepsin” value (human cathepsin L; 0.0053 µM) was 0%. The “% inhibition against human Cathepsin” value (human cathepsin L; 0.0266 µM) was 0%, the “% inhibition against human Cathepsin” value (human cathepsin L; 0.6 µM) was 0.7754% and 0% and the “% inhibition against human Cathepsin” value (human cathepsin L; 3.3 µM) was 3.874% and 0.1997% and 5.01%. For the same molecule, the “% inhibition against human Cathepsin” value (human cathepsin L; 16.6 µM) was 10.3453% and 15.2677% and 19.1834%, the IC50 (human cathepsin L) was > 16 µM and the “lung virus titer, ave of log pfu/g” value [1] was 4.602 log pfu/g and 4.836 log pfu/g. The “Virus titer in lung” value ([1]; 120 mg/kg) was 4.60 Log10 PFU/gr and 4.84 Log10 PFU/gr, the “Virus titer in lung” value [5] was 5.57 Log10 PFU/gr and 4.93 Log10 PFU/gr and the “Binding mode in co-crystal structure” value (SARS-CoV-2 M^pro) was “covalent bond formation between Cys145 and 4-fluorobenzothioazoly ketone”. The CC50 (A549-ACE2-TMPRSS2 cells) was > 100 µM, the CC50 (HepG2 cells) was > 200 µM and the “Body weights and survival rates” value ([2]; ip, 120 mg/kg) was “no significant changes were recorded”. For the same molecule, the “Peak ratio, Dimer-1X compound” value [6] was 42.6% and 25.2%, the “Peak ratio, M^pro Monomer” value [6] was 8.6% and 7.7% and the “Peak ratio, Monomer” value (Glycine-added M^pro) was 36.5%. For the same molecule, the “Peak ratio, Monomer-1X compound” value (Glycine-added M^pro) was 21.2%, the CC50 (VeroE6 cells [4]; read-out: CC50, VeroE6) was > 100 µM and the CC50 (VeroE6 cells [4]; [11]) was > 100 µM. The CC50 (HeLa-ACE2-TMPRSS2 cells) was > 100 µM.
In the case of `CC(C)(C)[C@H](NC(=O)C(F)(F)F)C(=O)N1C[C@H]2[C@@H]([C@H]1C(=O)N[C@H](C#N)C[C@@H]1CCNC1=O)C2(C)C` [Nirmatrelvir, reference compound], the “Intracellular amount, avg” value (VeroE6 cells [7]; 10 µM) is reported as 0 pmol(total), the “Intracellular amount, individual” value (VeroE6 cells [7]; 10 µM) is reported as 0 pmol(total) and the “intracellular compound, /1x10^6” value (VeroE6 cells [7]; 10 µM) is reported as 0 /1x10^6. The “intracellular compound, pmol(total)” value (VeroE6 cells [7]; 10 µM) was 0 pmol, the “Intracellular amount, avg” value (VeroE6 cells [7]; 50 µM) was 0.03906 pmol(total) and the “Intracellular amount, avg” value (VeroE6 cells [7]; 100 µM) was 0.1149 pmol(total). For the same molecule, the half-life (in vivo) was 1.03 h, the CC50 at 3 days (in vitro [8]) was > 100 µM and the CC50 at 3 days (in vitro [9]) was > 100 µM.
